Measured values reported in US20240382471A1, “GLUCAGON-LIKE PEPTIDE-1 RECEPTOR MODULATORS AND USES THEREOF” (HEPAGENE THERAPEUTICS (HK) LIMITED, priority 2021, published 2024).

Columns and labels:
GLP1R [1] = molecular target: T1, GLP1R (Homo sapiens, UniProt P43220); test: GLP1R cAMP assay (HTRF cAMP detection, agonist activity); type: cell-based; set-up: host or cells: Flp-In-293; conditions: Flp-In-293-GLP1R cells, 30 min at 37° C., read-out: EC50 (nM) Assay 1
Protocol: GLP1R-mediated agonist activity was determined with a cell-based functional assay utilizing an HTRF (Homogeneous Time-Resolved Fluorescene) cAMP detection kit that measures CAMP levels in the cell. Reagents and equipment used in the assay are listed below, followed by the protocol.
• 1) Cell Line: Flp-In-293-GLP1R (constructed by Pharmaron Beijing Co., Ltd) • 2) Complete Medium: DMEM+10% FBS+1×Penicillin-Streptomycin+200 μg/mL HB • 3) Assay Buffer: 1×HBSS+20 mM HEPES+0.1% BSA+500 μM IBMX
• a) Seed Flpin-293-GLP1R cells at 20,000 cells/well into 384 well assay plate (6007680-50, PE) using complete medium. • b) Prepare 4×compound working solution with assay buffer. • c) Add 5 μL 4×compound working solution into cell plate, incubate 30 min at 37° C. • d) Dilute Eu-cAMP tracer (1/50) with lysis buffer and add 10 μl/well to assay plate. • e) Dilute Ulight-anti-cAMP (1/150) with lysis buffer and add 10 μl/well to assay plate. • f) Incubate 1 h at RT. • g) Read the plate at wavelengths of 665 nm and 615 nm on Envision 2105 plate reader.
• 3.1% Activity is calculated as follow:
% Activity=100−(Signalcmpd−SignalAve_PC)/(SignalAve_VC−SignalAve_PC)×100. • 3.2 Calculate EC50 and Plot effect-dose curve of cmpds:
Y=Bottom+(Top−Bottom)/(1+10^((Log EC50−X)*Hill Slope)) • X: log of agonist concentration; Y: % Activity.
Target sequence in this assay (P43220 24-463, species assumed): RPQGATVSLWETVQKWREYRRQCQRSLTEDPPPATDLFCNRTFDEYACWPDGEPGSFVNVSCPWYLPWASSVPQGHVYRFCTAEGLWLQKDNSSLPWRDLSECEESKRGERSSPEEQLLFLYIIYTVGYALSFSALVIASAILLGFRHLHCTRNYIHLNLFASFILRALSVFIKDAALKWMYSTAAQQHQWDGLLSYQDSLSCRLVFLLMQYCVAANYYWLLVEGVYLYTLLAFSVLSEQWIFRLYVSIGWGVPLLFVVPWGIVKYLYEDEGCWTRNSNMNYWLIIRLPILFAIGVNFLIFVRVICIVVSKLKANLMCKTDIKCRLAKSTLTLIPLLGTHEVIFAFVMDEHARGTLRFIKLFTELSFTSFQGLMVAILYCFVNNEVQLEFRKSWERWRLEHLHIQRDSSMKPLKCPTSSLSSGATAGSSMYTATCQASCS

GLP1R [2] = molecular target: T1, GLP1R; test: GLP1R/CRE-Luc luciferase reporter gene assay (agonist activity); type: cell-based; set-up: host or cells: HKE293 (so in the source); conditions: HKE293-Human GLP1R/CRE-luc cells, 5 h at 37° C., read-out: EC50 (nM) Assay 2
Target sequence in this assay (P43220 24-463): as the sequence (P43220 24-463, species assumed) above

EC50 (GLP1R [1])	EC50 (GLP1R [2])	Compound
0.028 nM	48.7 nM	N#Cc1ccc(COc2cccc(C34CCN(Cc5nc6ccc(C(=O)O)cc6n5C[C@@H]5CCO5)CC3C4)n2)c(F)c1 (single isomer, unassigned) [Compound 1-1-A]
0.035 nM	84.9 nM	N#Cc1ccc(COc2cccc(C34CCN(Cc5nc6ccc(C(=O)O)cc6n5C[C@@H]5CCO5)CC3C4)n2)c(F)c1 (single isomer, unassigned) [Compound 1-1-B]
0.009 nM	19.3 nM	N#Cc1ccc(COc2cccc(C34CCN(Cc5nc6c(F)cc(C(=O)O)cc6n5C[C@@H]5CCO5)CC3C4)n2)c(F)c1 (single isomer, unassigned) [Compound 1-10-A]
0.021 nM	47.6 nM	N#Cc1ccc(COc2cccc(C34CCN(Cc5nc6c(F)cc(C(=O)O)cc6n5C[C@@H]5CCO5)CC3C4)n2)c(F)c1 (single isomer, unassigned) [Compound 1-10-B]
0.029 nM	80.8 nM	N#Cc1ccc(COc2cccc(C34CCN(Cc5nc6ccc(C(=O)O)cc6n5C[C@@H]5CCO5)CC3C4)n2)c(F)c1 (stereo partly drawn) [Compound 1-1, 2-[(6-{6-[(4-cyano-2-fluorophenyl)methoxy]pyridin-2-yl}-3-azabicyclo[4.1.0]heptan-3-yl)methyl]-3-[(2S)-oxetan-2-ylmethyl]-1,3-benzodiazole-5-carboxylic acid]
0.03 nM	100 nM	O=C(O)c1ccc2nc(CN3CCC4(c5cccc(OCc6ccc(Cl)cc6F)n5)CC4C3)n(C[C@@H]3CCO3)c2c1 (stereo partly drawn) [Compound 1-5, 2-((6-(6-((4-chloro-2-fluorobenzyl)oxy)pyridin-2-yl)-3-azabicyclo[4.1.0]heptan-3-yl)methyl)-1-(((S)-oxetan-2-yl)methyl)-1H-benzo[d]imidazole-6-carboxylic acid]
0.035 nM	108 nM	O=C(O)c1ccc2nc(CN3CCC4(c5cccc(OCc6ccc(C(F)(F)F)cc6F)n5)CC4C3)n(C[C@@H]3CCO3)c2c1 (stereo partly drawn) [Compound 1-8, 2-{[6-(6-{[2-fluoro-4-(trifluoromethyl)phenyl]methoxy}pyridin-2-yl)-3-azabicyclo[4.1.0]heptan-3-yl]methyl}-3-[(2S)-oxetan-2-ylmethyl]-1,3-benzodiazole-5-carboxylic acid]
0.047 nM	31.2 nM	N#Cc1ccc(COc2cccc(C34CCN(Cc5nc6c(F)cc(C(=O)O)cc6n5C[C@@H]5CCO5)CC3C4)n2)c(F)c1 (stereo partly drawn) [Compound 1-10, 2-((6-(6-((4-cyano-2-fluorobenzyl)oxy)pyridin-2-yl)-3-azabicyclo[4.1.0]heptan-3-yl)methyl)-4-fluoro-1-(((S)-oxetan-2-yl)methyl)-1H-benzo[d]imidazole-6-carboxylic acid]
–	0.16 nM	CCn1cncc1Cn1c(CN2CCC3(c4nccc(OCc5ccc(C#N)cc5OC)n4)CC3C2)nc2c(OC)cc(C(=O)O)cc21 (stereo not shown) [Compound 1-45, 2-((6-(4-((4-cyano-2-methoxybenzyl)oxy)pyrimidin-2-yl)-3-azabicyclo[4.1.0]heptan-3-yl)methyl)-1-((1-ethyl-1H-imidazol-5-yl)methyl)-4-methoxy-1H-benzo[d]imidazole-6-carboxylic acid]
–	2.6 nM	COc1cc(C#N)ccc1COc1ccnc(C23CCN(Cc4nc5c(Cl)cc(C(=O)O)cc5n4C[C@@H]4CCO4)CC2C3)n1 (stereo partly drawn) [Compound 1-46, 4-chloro-2-((6-(4-((4-cyano-2-methoxybenzyl)oxy)pyrimidin-2-yl)-3-azabicyclo[4.1.0]heptan-3-yl)methyl)-1-(((S)-oxetan-2-yl)methyl)-1H-benzo[d]imidazole-6-carboxylic acid]
–	3.85 nM	COc1cc(Cl)ccc1COc1ccnc(C23CCN(Cc4nc5c(OC)cc(C(=O)O)cc5n4C[C@@H]4CCO4)CC2C3)n1 (stereo partly drawn) [Compound 1-47, 2-((6-(4-((4-chloro-2-methoxybenzyl)oxy)pyrimidin-2-yl)-3-azabicyclo[4.1.0]heptan-3-yl)methyl)-4-methoxy-1-(((S)-oxetan-2-yl)methyl)-1H-benzo[d]imidazole-6-carboxylic acid]
–	0.33 nM	CCn1cncc1Cn1c(CN2CCC3(c4nccc(OCc5ccc(C(F)(F)F)cc5OC)n4)CC3C2)nc2c(OC)cc(C(=O)O)cc21 (stereo not shown) [Compound 1-48, 1-((1-ethyl-1H-imidazol-5-yl)methyl)-4-methoxy-2-((6-(4-((2-methoxy-4-(trifluoromethyl)benzyl)oxy)pyrimidin-2-yl)-3-azabicyclo[4.1.0]heptan-3-yl)methyl)-1H-benzo[d]imidazole-6-carboxylic acid]
–	10.2 nM	C#Cc1ccc(COc2ccnc(C34CCN(Cc5nc6c(OC)cc(C(=O)O)cc6n5C[C@@H]5CCO5)CC3C4)n2)c(OC)c1 (stereo partly drawn) [Compound 1-49, 2-((6-(4-((4-ethynyl-2-methoxybenzyl)oxy)pyrimidin-2-yl)-3-azabicyclo[4.1.0]heptan-3-yl)methyl)-4-methoxy-1-(((S)-oxetan-2-yl)methyl)-1H-benzo[d]imidazole-6-carboxylic acid]
0.287 nM	> 1000 nM	N#Cc1ccc(COc2cccc(N3C4CCC3CN(Cc3nc5ccc(C(=O)O)cc5n3C[C@@H]3CCO3)C4)n2)c(F)c1 [Compound 2-29, 2-((−8-(6-((4-cyano-2-fluorobenzyl)oxy)pyridin-2-yl)-3,8-diazabicyclo[3.2.1]octan-3-yl)methyl)-1-(((S)-oxetan-2-yl)methyl)-1H-benzo[d]imidazole-6-carboxylic acid]
> 4 nM	> 1000 nM	N#Cc1ccc(COc2ccnc(N3C4CCC3CN(Cc3nc5ccc(C(=O)O)cc5n3C[C@@H]3CCO3)C4)c2)c(F)c1 [Compound 2-34, 2-((−8-(4-((4-cyano-2-fluorobenzyl)oxy)pyridin-2-yl)-3,8-diazabicyclo[3.2.1]octan-3-yl)methyl)-1-(((S)-oxetan-2-yl)methyl)-1H-benzo[d]imidazole-6-carboxylic acid]
2.79 nM	> 1000 nM	N#Cc1ccc(COc2cccc(N3C4CCC3CN(Cc3nc5ccc(C(=O)O)cc5n3C[C@@H]3CCO3)C4)c2)c(F)c1 [Compound 2-35, 2-((−8-(3-((4-cyano-2-fluorobenzyl)oxy)phenyl)-3,8-diazabicyclo[3.2.1]octan-3-yl)methyl)-1-(((S)-oxetan-2-yl)methyl)-1H-benzo[d]imidazole-6-carboxylic acid]
–	266 nM	COc1cc(C#N)ccc1COc1cccc(C23CCN(Cc4nc5c(F)cc(C(=O)NS(C)(=O)=O)cc5n4C[C@@H]4CCO4)CC2C3)n1 (stereo partly drawn) [Compound 7-1, 2-((6-(6-((4-cyano-2-methoxybenzyl)oxy)pyridin-2-yl)-3-azabicyclo[4.1.0]heptan-3-yl)methyl)-4-fluoro-N-(methylsulfonyl)-1-(((S)-oxetan-2-yl)methyl)-1H-benzo[d]imidazole-6-carboxamide]
